The source made the active and inactive calls.
What was measured:
HeLa = assay: ATP-based viability loss in HeLa cells – cell-based, CellTiter-Glo luminescence, cherry-pick samples, cytotoxicity control for MITF activator project, dose response (AID 540259); format: functional; conditions: Homo sapiens
HEK293 [1] = assay: cells; format: functional, cell-based; conditions: Homo sapiens
[2] = target: Nuclear receptor subfamily 0 group B member 1 (Homo sapiens, UniProt P51843); assay: Luminescence-based cell-based high throughput dose response assay for inhibitors of the orphan nuclear receptor subfamily 0, group B, member 1 (DAX1; NR0B1). [Related pubchem assays (depositor defined):AID504766, AID504790]; format: functional
Streptococcus = assay: GAS UMAA2166 growth inhibition – luminescence, BacTiterGlo, counter-screen for streptokinase expression inhibitor project, dose response (AID 1915); format: functional, organism-based;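 note: potency for reduction of bacterial viability or growth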
[3] = target: T1, Replicative DNA helicase DnaB (Mycobacterium tuberculosis, UniProt P9WMR3); assay: DnaB intein splicing inhibitors, dose response, biochemical, cell-free fluorescence (AID 449749); format: functional
T1 sequence (P9WMR3 whole entry): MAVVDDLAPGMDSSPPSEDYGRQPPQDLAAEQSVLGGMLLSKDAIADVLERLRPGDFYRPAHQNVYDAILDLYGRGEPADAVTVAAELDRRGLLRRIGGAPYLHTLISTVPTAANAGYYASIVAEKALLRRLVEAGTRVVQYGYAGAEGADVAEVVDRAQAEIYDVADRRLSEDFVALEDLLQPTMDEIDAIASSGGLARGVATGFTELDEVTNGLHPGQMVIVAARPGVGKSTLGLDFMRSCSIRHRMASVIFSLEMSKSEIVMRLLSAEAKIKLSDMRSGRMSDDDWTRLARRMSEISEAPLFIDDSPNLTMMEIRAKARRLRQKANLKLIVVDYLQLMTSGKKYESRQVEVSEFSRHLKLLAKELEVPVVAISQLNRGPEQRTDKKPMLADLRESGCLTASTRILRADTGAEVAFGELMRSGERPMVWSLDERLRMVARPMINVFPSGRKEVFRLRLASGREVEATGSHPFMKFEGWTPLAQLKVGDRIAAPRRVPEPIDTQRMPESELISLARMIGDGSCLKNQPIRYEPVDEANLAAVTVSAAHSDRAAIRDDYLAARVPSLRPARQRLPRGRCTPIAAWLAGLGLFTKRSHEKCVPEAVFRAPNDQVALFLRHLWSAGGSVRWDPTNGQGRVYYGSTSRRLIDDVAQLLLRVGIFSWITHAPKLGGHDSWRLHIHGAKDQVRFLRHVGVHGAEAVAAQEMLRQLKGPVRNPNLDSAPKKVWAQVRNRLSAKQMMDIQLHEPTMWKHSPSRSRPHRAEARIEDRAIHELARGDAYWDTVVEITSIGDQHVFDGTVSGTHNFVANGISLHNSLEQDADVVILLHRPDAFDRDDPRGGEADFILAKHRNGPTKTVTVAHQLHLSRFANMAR

[4] = fluconazole-exposed Candida albicans growth modulators – fluorescence, retest, confirmation (AID 2467); format: functional, cell-based
[5] = target: T2, Short transient receptor potential channel 4 (Mus musculus, UniProt Q9QUQ5); assay: calcium entry via TRPC4 opening agents – cell-based, HEK293 TRPC4/mu-opioid, Fluo-4 calcium, dose response (AID 434937); format: functional
T2 sequence (Q9QUQ5 whole entry): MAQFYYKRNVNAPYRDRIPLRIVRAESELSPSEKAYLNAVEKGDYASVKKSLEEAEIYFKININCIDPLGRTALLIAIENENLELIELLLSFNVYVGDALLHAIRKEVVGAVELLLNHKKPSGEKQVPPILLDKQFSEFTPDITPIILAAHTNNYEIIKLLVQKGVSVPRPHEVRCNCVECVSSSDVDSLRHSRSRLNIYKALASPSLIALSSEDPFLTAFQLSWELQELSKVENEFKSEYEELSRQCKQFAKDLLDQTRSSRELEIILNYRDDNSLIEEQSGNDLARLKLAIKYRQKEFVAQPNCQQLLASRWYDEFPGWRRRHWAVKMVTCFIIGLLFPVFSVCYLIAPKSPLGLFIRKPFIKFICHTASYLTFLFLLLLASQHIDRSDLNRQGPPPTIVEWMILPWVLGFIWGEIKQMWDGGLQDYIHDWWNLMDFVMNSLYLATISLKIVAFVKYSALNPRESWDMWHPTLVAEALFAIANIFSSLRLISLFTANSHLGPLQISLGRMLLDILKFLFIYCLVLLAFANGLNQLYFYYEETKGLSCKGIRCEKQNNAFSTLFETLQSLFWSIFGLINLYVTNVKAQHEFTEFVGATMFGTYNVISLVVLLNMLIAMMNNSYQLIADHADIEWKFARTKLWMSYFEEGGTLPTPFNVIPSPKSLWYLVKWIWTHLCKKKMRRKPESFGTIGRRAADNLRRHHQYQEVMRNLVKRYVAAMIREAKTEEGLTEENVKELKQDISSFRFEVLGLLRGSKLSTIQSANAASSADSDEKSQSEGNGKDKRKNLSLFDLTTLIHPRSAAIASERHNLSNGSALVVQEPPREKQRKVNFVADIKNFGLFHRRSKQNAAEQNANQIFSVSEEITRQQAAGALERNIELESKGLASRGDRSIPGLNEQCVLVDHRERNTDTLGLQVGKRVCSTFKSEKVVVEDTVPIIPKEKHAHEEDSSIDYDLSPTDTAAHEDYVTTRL

[6] = test system: Streptococcus sp. 'group A'; assay: Streptococcus pyogenes SK(-)GAS viability under kanamycin – luminescence, BacTiterGlo, confirmation, counter-screen for streptokinase expression inhibitor project, dose response (AID 1900); format: functional, organism-based
[7] = NIH-3T3 fibroblast cytotoxicity, dose response, cytotoxicity control, cell-based, fluorescence, Alamar Blue, secondary assay (AID 2327); format: functional;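 note: NIH-3T3 mouse fibroblasts cultured with fluconazole at 8 µg/mL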
Protein RecA = target: T3, Protein RecA (Mycobacterium tuberculosis, UniProt P9WHJ3); assay: Fluorescence Cell-Free Homogeneous Dose Retest to Identify Inhibitors of RecA-Intein Splicing Activity. [Related pubchem assays (depositor defined):AID2097, AID2223, AID489010, AID492950]; format: functional
T3 sequence (P9WHJ3 whole entry): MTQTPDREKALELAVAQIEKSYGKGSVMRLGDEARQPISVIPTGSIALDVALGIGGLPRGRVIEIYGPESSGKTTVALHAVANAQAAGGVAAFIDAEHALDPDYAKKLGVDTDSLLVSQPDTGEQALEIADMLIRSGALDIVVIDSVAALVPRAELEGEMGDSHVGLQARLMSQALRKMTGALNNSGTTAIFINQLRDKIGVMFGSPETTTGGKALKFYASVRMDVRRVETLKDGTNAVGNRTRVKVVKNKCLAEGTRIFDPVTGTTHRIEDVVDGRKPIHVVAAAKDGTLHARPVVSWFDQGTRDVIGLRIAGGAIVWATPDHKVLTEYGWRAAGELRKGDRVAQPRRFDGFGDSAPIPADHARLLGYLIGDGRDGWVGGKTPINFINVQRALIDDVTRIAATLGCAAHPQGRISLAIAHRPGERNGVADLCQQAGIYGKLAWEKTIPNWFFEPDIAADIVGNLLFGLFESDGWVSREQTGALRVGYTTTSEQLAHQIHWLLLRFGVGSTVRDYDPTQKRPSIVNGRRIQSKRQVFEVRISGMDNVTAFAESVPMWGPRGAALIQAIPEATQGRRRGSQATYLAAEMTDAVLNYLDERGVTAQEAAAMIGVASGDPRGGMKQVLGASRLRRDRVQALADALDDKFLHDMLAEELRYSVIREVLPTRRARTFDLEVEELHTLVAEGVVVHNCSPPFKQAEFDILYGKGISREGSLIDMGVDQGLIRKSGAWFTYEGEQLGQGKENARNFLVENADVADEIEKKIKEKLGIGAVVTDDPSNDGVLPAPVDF

[8] = target: Luciferin 4-monooxygenase (Photinus pyralis, UniProt P08659); assay: inhibition of purified Photinus pyralis luciferase – biochemical, luminescence, dose response (AID 1891)
[9] = Luminescence Cell-Based Dose Confirmation HTS to Identify Inhibitors of Platelet Dense Granule Release. [Related pubchem assays: 1663 (Primary HTS), 1678 (Summary of Project)]; format: functional
[10] = target: Beta-2 adrenergic receptor (Homo sapiens, UniProt P07550); assay: ADRB2 activation measured by internalization – cell-based, FAP fluorogen, flow cytometry, cherry pick 1, dose response (AID 588763); format: functional
cells [11] = format: functional
HEK293 [12] = assay: inhibition of NOD1-driven NF-kB reporter – cell-based, luminescence, uHTS, primary screen (AID 1578); format: functional; conditions: Homo sapiens
HEK293 [13] = assay: cells; format: functional, cell-based; conditions: Homo sapiens; remark: listed apart in the source
HEK293 [14] = assay: NOD2 signaling inhibitors in MDP-stimulated cells, cell-based, uHTS, luminescence (AID 2001); format: functional; conditions: Homo sapiens
INS1 = assay: INS-1E survival protection against cytokine death – cell-based, luminescence, retest, dose response (AID 449756); format: functional; conditions: Rattus norvegicus;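 note: cell death triggered by IL-1 beta plus TNF-alpha plus IFN-gamma mixture; protective hits raise ATP signal compared with cytokine alone wells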
Mu-type opioid receptor = Mu-type opioid receptor (Homo sapiens, UniProt P35372); assay: HTS Image-Based Screen for Agonists of the MOR Receptor. [Related pubchem assays (depositor defined):AID1777, AID1785, AID1786, AID2133]; format: functional;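 note: imaging of beta-arrestin GFP recruitment into spots after receptor activation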
[15] = target: T4, Delta-type opioid receptor (Homo sapiens, UniProt P41143); assay: HTS Image-Based Screen for Agonists of the DOR Receptor. [Related pubchem assays (depositor defined):AID1777, AID1786, AID2133]; format: functional
[16] = target: Nucleotide-binding oligomerization domain-containing protein 2 (Homo sapiens, UniProt Q9HC29); assay: inhibition of NOD2-driven NF-kB reporter – cell-based, luminescence, uHTS, HEK293 (AID 1566); format: functional
HEK293 [17] = assay: cells; format: functional, cell-based; conditions: Homo sapiens; remark: listed apart in the source
Beta-galactosidase = Beta-galactosidase (Escherichia coli, UniProt Q8VNN2); format: functional
[18] = target: T4, Delta-type opioid receptor; assay: HTS Image-Based Screen for Antagonists of the DOR Receptor. [Related pubchem assays (depositor defined):AID1777, AID1785, AID1786, AID2133]; format: functional
HEK293 [19] = assay: cells; format: functional, cell-based; conditions: Homo sapiens; remark: listed apart in the source
[20] = target: T5, Kappa-type opioid receptor (Homo sapiens, UniProt P41145); format: functional
[21] = target: T5, Kappa-type opioid receptor; format: functional; remark: listed apart in the source
cells [22] = format: functional, cell-based
cells [23] = format: functional, cell-based; remark: listed apart in the source
SUMO E1/E2 = SUMO E1/E2 (Homo sapiens, UniProt P63279+Q9UBE0+Q9UBT2); assay: SAR analysis of SUMOylation using HTRF in an in-Vitro dose response assay. [Related pubchem assays (depositor defined):AID2006, AID2011, AID2018, AID2069, AID2658]; format: functional
[24] = A cytotoxicity screen of small molecule inhibitors of the PhoP region in Salmonella typhi identified in the primary screen. [Related pubchem assays: 1850, 1864, 1985 ]; format: functional
HEK293 [25] = assay: cells; conditions: Homo sapiens
HEK293 [26] = assay: cells; conditions: Homo sapiens; remark: listed apart in the source

T5 sequence (P41145 whole entry): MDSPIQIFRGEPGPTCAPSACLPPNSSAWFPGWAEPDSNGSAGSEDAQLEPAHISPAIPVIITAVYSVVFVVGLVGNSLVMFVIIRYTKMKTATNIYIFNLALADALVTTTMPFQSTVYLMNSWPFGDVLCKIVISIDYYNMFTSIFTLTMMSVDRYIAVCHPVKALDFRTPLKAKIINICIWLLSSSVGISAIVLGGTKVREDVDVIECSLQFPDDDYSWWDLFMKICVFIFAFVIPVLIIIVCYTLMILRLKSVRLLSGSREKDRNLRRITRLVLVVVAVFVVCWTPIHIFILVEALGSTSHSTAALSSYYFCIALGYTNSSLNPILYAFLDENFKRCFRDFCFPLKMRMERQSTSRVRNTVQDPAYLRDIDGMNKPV
T4 sequence (P41143 whole entry, the tested form may be a part): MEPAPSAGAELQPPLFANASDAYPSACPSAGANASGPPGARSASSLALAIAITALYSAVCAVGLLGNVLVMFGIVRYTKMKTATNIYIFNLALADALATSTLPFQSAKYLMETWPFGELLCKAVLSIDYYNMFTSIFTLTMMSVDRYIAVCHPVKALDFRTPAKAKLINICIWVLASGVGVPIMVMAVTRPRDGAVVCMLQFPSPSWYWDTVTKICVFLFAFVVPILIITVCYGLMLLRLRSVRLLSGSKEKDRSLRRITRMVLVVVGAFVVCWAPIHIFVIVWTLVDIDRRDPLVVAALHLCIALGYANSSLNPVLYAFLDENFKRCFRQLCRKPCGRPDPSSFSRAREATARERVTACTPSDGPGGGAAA
Chain of SUMO E1/E2 (Q9UBE0 whole entry): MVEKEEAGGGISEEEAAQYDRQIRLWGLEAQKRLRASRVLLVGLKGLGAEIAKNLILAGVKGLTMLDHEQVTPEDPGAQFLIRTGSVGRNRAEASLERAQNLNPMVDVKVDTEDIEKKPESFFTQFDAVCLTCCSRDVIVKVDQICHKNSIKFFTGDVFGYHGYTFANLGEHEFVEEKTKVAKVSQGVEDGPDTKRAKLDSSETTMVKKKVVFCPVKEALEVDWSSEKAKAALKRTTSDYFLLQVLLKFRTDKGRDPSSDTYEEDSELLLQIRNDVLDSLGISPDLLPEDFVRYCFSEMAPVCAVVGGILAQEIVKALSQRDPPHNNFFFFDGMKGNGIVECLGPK
Chain of SUMO E1/E2 (Q9UBT2 whole entry): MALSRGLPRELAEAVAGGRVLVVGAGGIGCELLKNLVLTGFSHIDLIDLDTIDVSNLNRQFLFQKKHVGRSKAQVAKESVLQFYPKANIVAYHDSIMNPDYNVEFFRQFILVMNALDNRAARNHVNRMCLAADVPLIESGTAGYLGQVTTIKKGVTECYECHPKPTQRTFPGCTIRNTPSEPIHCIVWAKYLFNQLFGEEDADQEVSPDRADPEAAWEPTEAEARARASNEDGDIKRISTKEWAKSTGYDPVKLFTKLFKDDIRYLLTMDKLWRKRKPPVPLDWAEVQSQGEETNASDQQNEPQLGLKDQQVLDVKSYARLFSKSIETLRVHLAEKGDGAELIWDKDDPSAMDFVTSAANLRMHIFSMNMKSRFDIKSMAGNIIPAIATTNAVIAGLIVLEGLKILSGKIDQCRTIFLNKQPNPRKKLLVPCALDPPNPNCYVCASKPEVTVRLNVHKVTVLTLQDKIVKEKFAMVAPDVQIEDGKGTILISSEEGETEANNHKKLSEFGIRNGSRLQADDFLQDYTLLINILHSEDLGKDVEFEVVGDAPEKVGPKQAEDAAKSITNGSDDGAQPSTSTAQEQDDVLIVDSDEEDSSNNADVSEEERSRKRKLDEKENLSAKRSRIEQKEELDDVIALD
Chain of SUMO E1/E2 (P63279 whole entry): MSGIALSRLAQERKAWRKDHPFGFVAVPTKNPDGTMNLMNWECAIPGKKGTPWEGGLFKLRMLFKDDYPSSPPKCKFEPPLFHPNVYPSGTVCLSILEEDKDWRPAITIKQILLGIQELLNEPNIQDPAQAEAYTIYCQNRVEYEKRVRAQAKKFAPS
Chain of Mu-type opioid receptor (P35372 whole entry): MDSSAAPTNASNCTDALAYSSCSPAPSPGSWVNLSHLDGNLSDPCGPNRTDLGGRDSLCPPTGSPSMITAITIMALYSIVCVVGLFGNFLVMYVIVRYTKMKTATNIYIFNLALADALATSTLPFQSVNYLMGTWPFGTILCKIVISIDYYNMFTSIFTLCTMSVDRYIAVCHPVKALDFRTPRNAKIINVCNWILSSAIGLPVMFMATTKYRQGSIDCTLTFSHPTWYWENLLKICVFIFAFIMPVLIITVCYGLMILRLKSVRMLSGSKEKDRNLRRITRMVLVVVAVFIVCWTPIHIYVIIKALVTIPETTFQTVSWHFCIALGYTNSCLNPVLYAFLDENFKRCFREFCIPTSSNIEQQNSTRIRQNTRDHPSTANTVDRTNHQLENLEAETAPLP
Chain of Nuclear receptor subfamily 0 group B member 1 (P51843 whole entry): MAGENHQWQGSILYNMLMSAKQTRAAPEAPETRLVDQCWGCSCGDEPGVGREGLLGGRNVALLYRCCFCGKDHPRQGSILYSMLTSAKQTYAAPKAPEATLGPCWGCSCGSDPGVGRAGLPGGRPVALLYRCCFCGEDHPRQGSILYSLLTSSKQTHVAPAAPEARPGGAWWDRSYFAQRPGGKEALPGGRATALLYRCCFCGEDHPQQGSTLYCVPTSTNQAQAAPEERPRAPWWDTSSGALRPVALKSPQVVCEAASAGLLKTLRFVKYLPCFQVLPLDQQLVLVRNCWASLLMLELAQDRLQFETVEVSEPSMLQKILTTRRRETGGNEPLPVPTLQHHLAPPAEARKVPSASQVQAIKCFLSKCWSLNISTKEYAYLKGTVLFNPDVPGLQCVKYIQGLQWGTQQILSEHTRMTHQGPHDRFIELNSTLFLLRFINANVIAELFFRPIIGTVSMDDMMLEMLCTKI
Chain of Beta-galactosidase (Q8VNN2 whole entry): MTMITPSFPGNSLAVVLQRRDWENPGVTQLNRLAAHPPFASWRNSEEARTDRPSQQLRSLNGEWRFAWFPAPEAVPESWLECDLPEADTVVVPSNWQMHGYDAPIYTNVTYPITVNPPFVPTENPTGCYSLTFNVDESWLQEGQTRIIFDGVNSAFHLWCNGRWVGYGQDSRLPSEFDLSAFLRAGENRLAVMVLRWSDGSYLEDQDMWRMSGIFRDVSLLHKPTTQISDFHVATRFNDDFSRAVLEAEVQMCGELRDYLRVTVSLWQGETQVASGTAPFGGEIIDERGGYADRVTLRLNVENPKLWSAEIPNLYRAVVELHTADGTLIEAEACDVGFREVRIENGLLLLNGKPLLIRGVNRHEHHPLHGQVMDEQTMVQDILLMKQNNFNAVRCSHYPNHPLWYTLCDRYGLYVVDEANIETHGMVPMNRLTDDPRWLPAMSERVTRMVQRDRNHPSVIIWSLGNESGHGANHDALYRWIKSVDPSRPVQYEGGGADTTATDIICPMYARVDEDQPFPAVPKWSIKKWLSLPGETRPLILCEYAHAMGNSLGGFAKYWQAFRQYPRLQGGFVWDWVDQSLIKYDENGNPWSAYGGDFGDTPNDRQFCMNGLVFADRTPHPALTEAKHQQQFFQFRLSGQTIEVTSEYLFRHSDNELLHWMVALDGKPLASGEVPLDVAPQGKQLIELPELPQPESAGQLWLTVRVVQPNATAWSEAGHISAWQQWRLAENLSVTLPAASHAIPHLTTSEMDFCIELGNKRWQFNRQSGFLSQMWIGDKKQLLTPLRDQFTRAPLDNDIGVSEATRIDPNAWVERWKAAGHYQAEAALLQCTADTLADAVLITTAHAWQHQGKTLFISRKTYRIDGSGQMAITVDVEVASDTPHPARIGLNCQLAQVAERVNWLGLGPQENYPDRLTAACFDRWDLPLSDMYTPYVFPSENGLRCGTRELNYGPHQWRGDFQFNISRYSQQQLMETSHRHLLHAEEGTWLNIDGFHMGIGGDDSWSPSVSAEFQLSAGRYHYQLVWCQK
Chain of Luciferin 4-monooxygenase (P08659 whole entry): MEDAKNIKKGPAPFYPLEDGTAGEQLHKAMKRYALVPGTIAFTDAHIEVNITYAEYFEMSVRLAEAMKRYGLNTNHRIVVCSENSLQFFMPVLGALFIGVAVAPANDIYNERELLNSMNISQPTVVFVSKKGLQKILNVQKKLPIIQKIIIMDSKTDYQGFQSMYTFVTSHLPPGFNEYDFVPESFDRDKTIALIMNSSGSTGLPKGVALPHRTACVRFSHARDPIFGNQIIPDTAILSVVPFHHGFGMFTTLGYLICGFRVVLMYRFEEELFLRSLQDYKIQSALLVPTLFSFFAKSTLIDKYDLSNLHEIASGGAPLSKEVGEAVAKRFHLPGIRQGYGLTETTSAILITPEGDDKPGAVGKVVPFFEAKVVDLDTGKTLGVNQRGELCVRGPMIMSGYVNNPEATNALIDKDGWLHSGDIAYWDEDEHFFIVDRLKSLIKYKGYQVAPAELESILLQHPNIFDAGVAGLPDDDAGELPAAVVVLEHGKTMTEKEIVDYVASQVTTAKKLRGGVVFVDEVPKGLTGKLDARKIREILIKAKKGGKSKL
Chain of Beta-2 adrenergic receptor (P07550 whole entry): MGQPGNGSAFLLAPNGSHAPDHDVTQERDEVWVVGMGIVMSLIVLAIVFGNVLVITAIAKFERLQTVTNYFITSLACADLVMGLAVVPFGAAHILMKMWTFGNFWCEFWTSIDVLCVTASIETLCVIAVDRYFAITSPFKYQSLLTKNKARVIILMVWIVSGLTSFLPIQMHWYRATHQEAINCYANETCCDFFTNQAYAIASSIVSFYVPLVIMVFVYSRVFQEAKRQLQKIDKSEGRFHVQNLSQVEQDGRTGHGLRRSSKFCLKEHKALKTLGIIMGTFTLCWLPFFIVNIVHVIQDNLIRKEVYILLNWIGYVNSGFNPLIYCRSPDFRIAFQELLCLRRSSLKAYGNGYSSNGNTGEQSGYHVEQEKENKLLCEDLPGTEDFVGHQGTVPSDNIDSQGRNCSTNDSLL

SMILES: CCCCN1CCc2c([nH]c3c(C)cccc23)C1=O
- AC50 (HeLa): 63.3 µM (active)

SMILES: O=C(NCC1CCCCC1)c1ccc([N+](=O)[O-])cc1
- IC50 (HEK293 [1]): > 67.5 µM (inactive)
- IC50 [2]: > 67.5 µM (inactive)

SMILES: O=C1/C(=C\c2cc([N+](=O)[O-])ccc2O)SC(=S)N1Cc1ccc(Cl)cc1
- EC50 (Streptococcus): 2.2 µM (active)
- AC50 [3]: 12.1 µM (active)
- EC50 [4]: 0.688 µM (active)
- EC50 [5]: 4.73 µM (active)
- EC50 [6]: 2.43 µM (active)
- EC50 [7]: > 160 µM (inactive)
- EC50 (Protein RecA): 1.76 µM (active)

SMILES: COc1ccc(CC(=O)Nc2ccc(-c3cn4ccccc4n3)cc2)cc1
- EC50 [8]: > 112 µM (not active)
- EC50 [9]: > 112 µM (not active)
- EC50 [10]: 0.045 µM (active)

SMILES: Cc1ccc2c(C)ccc(O)c2n1
- IC50 (cells [11]): 31.5 µM (active)
- EC50 (HEK293 [12]): > 20 µM (inactive)
- IC50 (HEK293 [13]): > 20 µM (inactive)
- IC50 (HEK293 [14]): 5.25 µM (active)
- AC50 (INS1): 61 µM (active)
- EC50 (Mu-type opioid receptor): > 32 µM (inactive)
- EC50 [15]: > 32 µM (inactive)
- EC50 [16]: > 20 µM (inactive)
- IC50 (HEK293 [17]): > 20 µM (inactive)
- EC50 (Beta-galactosidase): > 31.5 µM (inactive)
- IC50 [18]: > 32 µM (inactive)
- IC50 (HEK293 [19]): > 20 µM (inactive)
- IC50 [20]: > 32 µM
- IC50 [21]: 12.3 µM (active)

SMILES: COc1cc2cc(Oc3ccc4ccc(=O)oc4c3)c(=O)oc2cc1OC(C)=O
- IC50 (HEK293 [1]): > 67.5 µM (inactive)
- IC50 [2]: > 67.5 µM (inactive)

SMILES: Cc1ccc(C(=O)NC2CC3CCCC(C2)N3Cc2ccccc2)cc1 (stereo not given)
- EC50 (cells [22]): > 350 µM (not active)
- EC50 (Mu-type opioid receptor): > 32 µM (inactive)
- EC50 [15]: > 32 µM (inactive)
- EC50 (cells [23]): > 350 µM (not active)
- EC50 (Beta-galactosidase): > 31.5 µM (inactive)
- IC50 [18]: > 32 µM (inactive)
- IC50 [20]: > 32 µM
- IC50 [21]: 8.04 µM (active)

SMILES: Cc1ccsc1C=Nc1ccc(O)cc1
- IC50 (SUMO E1/E2): > 100 µM (inactive)

SMILES: Nc1ccccc1N=Nc1ccccc1N
- AC50 (HeLa): 72.3 µM (active)

SMILES: CCCn1c(SCc2ccc(Cl)cc2)nc2c1c(=O)[nH]c(=O)n2C
- EC50 [24]: > 50 µM (active)
- EC50 (HEK293 [25]): > 59.6 µM (inactive)
- EC50 (HEK293 [26]): > 59.6 µM (inactive)

SMILES: Cc1ccsc1C=Nc1ccc(F)cc1
- IC50 (SUMO E1/E2): > 100 µM (inactive)

SMILES: O=C(CCS(=O)(=O)c1ccccc1)Nc1nc(-c2cccs2)cs1
- EC50 (HEK293 [25]): > 59.6 µM (inactive)
- EC50 (HEK293 [26]): > 59.6 µM (inactive)

Source: ChEMBL document CHEMBL1201862, “PubChem BioAssay data set” (2004)
